Assay results as given in EP3154958B1, “PHOSPHATIDYLINOSITOL 3-KINASE INHIBITORS” (Gilead Sciences, Inc., priority 2014, dated 2015).

Legend:
Type in all cases: biochemical
PI3Kδ = target: T1, PI3Kδ (Homo sapiens, UniProt O00329); assay: TR-FRET enzymatic activity assay, PI3Kδ; details: recombinant heterodimeric PI3Kδ 25-50 pM, 2× Km ATP, 30 minutes at 25°C
T1 construct: made in house
Method: (§1) The compounds of formula (I) were characterized for their enzymatic activity against the PI3K isoforms. The activities were measured using a time-resolved fluorescence resonance energy transfer (TR-FRET) assay.

PI3Kγ = target: T2, PI3Kγ (Homo sapiens, UniProt P48736); assay: TR-FRET enzymatic activity assay, PI3Kγ; details: recombinant heterodimeric PI3Kγ 2 nM, 2× Km ATP, 30 minutes at 25°C
T2 construct: made in house
Method: as §1

PI3Kβ = target: T3, PI3Kβ (Homo sapiens, UniProt P42338); assay: TR-FRET enzymatic activity assay, PI3Kβ; details: recombinant heterodimeric PI3Kβ 25-50 pM, 2× Km ATP, 30 minutes at 25°C
T3 construct: made in house
Method: as §1

T3 sequence (P42338 whole entry): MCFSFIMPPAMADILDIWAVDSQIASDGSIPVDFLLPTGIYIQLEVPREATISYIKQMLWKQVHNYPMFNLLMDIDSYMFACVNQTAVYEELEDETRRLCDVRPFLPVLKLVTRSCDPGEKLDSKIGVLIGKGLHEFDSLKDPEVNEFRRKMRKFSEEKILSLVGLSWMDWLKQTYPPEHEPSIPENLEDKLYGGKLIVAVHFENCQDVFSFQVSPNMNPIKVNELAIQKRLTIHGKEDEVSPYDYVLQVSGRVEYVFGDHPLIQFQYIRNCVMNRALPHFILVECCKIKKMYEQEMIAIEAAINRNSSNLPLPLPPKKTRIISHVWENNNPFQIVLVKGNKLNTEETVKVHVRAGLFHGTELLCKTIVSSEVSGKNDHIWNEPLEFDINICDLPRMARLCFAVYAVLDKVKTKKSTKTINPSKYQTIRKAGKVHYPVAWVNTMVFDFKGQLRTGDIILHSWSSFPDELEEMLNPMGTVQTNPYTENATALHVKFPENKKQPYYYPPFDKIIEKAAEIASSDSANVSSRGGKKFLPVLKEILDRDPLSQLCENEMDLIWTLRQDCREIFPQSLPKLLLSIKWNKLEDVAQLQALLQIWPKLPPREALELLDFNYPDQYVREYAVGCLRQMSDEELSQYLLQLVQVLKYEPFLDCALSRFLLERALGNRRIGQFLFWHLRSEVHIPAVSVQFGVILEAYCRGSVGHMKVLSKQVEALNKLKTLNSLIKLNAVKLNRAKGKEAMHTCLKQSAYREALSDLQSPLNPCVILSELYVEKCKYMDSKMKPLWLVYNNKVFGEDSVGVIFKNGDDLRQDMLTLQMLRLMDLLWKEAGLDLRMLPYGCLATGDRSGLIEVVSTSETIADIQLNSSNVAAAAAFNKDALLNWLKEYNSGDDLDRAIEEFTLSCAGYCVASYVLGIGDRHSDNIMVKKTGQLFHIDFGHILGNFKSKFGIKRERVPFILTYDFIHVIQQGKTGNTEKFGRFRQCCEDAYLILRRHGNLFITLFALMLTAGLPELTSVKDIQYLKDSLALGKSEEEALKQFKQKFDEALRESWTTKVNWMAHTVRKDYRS
T3 sequence (P27986 whole entry partner): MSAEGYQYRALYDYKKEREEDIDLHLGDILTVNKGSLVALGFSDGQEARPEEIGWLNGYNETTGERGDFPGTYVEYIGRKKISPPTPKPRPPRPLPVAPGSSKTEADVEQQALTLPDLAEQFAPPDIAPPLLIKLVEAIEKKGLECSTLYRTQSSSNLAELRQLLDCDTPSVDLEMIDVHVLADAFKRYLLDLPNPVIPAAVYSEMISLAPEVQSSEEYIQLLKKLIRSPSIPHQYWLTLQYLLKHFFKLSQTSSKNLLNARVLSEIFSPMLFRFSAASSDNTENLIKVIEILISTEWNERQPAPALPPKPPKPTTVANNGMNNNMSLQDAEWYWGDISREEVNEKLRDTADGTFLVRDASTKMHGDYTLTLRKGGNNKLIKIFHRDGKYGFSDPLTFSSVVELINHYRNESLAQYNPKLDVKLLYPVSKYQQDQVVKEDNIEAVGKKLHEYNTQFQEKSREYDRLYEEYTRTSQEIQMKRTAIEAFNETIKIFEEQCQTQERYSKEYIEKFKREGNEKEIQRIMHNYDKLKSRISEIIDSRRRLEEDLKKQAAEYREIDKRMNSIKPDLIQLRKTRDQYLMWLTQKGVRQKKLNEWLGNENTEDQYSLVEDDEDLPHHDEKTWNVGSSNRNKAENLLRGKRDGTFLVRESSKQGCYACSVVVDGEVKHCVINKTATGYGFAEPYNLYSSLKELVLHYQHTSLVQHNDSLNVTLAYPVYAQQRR
T2 sequence (P48736 whole entry): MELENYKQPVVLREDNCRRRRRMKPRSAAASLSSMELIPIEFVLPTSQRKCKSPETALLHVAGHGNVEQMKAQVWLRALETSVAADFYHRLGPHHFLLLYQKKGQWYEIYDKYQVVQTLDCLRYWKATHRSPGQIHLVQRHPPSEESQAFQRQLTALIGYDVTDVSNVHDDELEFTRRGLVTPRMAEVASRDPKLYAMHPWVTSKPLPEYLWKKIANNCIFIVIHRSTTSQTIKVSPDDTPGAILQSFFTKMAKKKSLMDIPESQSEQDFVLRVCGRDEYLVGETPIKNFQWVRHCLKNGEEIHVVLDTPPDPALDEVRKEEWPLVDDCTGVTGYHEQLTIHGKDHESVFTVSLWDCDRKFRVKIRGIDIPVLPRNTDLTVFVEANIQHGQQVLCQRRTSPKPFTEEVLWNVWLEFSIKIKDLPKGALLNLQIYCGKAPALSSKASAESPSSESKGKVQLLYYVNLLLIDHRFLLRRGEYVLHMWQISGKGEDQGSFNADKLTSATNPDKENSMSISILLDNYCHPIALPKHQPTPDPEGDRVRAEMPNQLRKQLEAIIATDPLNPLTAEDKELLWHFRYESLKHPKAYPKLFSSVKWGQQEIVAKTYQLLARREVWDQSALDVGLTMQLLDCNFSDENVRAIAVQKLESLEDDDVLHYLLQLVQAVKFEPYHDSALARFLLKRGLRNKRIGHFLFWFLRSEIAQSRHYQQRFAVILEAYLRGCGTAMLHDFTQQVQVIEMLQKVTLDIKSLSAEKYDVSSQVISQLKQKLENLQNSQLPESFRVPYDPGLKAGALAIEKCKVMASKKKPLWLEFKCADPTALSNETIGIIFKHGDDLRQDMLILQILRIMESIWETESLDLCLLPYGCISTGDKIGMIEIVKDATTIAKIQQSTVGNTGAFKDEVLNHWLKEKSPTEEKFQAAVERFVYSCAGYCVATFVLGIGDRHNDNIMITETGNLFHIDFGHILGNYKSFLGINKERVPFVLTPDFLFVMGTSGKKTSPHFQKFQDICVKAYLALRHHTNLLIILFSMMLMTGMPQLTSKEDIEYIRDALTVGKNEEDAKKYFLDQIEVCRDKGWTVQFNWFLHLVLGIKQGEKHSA
T2 sequence (Q8WYR1 whole entry partner): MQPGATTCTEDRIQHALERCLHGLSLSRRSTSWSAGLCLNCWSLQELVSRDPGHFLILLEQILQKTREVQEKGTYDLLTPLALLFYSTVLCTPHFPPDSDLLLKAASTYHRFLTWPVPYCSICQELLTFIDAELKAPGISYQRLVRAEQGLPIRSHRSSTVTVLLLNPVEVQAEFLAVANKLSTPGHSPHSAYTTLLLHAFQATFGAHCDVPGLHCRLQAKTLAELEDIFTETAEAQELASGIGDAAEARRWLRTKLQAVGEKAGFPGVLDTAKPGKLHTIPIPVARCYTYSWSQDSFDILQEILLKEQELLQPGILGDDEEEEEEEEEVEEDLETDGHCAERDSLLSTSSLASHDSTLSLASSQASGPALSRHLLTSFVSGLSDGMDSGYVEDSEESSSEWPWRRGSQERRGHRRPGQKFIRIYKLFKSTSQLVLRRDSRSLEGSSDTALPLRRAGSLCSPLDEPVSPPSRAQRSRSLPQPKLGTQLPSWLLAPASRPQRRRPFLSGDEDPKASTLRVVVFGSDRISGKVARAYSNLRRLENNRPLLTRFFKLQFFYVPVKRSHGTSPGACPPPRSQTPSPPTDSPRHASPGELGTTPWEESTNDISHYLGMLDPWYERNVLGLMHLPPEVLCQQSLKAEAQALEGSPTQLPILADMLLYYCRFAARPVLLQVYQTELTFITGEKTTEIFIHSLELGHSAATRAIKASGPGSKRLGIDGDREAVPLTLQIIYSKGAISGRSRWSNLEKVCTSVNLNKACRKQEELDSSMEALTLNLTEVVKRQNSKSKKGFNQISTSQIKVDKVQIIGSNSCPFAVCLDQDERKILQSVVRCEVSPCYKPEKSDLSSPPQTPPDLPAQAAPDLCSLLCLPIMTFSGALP
T1 sequence (O00329 whole entry): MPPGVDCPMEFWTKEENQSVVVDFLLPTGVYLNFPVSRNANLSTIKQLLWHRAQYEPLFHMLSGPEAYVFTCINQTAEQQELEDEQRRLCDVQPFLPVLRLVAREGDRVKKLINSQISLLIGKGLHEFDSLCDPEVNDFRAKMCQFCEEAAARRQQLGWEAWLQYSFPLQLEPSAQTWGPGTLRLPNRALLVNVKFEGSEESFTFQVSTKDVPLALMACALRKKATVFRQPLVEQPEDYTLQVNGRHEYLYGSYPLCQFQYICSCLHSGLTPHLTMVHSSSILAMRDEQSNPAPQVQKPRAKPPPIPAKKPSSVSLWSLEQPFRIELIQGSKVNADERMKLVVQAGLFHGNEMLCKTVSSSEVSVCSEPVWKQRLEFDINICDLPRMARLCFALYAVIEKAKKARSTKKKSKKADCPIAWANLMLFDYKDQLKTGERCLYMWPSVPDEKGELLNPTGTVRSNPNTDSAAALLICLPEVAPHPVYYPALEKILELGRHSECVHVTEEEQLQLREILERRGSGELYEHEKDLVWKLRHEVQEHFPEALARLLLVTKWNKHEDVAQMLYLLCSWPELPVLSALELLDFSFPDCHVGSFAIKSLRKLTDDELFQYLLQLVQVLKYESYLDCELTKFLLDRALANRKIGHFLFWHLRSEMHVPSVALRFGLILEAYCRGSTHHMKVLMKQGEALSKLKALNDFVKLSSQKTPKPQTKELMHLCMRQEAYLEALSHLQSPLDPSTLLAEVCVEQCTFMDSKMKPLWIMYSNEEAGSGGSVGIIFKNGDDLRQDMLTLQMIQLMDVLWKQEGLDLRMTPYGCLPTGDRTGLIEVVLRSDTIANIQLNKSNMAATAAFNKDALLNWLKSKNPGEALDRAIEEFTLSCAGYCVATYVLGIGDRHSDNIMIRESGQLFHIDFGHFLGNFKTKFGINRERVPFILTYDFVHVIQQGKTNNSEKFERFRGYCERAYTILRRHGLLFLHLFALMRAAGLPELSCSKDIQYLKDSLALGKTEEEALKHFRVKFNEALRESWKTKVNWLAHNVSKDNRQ
T1 sequence (P27986 whole entry partner): as the sequence (P27986 whole entry partner) above

Compound `C[C@H](Nc1nc(N)nc(N)c1C#N)c1nc2cccc(Cl)c2c(=O)n1[C@@H]1CCCNC1` (stereo in doubt) [Compound 27, 2,4-diamino-6-(((S)-1-(5-chloro-4-oxo-3-((R)-piperidin-3-yl)-3,4-dihydroquinazolin-2-yl)ethyl)amino)pyrimidine-5-carbonitrile] has an IC50 (PI3Kδ) of 0.83 µM, an IC50 (PI3Kγ) of over 10 µM and an IC50 (PI3Kβ) of 5.6 µM.

`N#Cc1c(N)nc(N)nc1N1CCC[C@@H]1c1nc2cccc(F)c2c(=O)n1N1CCN(Cc2ccccc2)CC1` (stereo in doubt) [Compound 124, (R)-2,4-diamino-6-(2-(3-(4-benzylpiperazin-1-yl)-5-fluoro-4-oxo-3,4-dihydroquinazolin-2-yl)pyrrolidin-1-yl)pyrimidine-5-carbonitrile] gave an IC50 (PI3Kδ) of 0.39 µM, an IC50 (PI3Kγ) of over 10 µM and an IC50 (PI3Kβ) of 1.3 µM.

`CN1CCN(n2c([C@@H](Nc3nc(N)nc(N)c3C#N)C3CC3)nc3cccc(Cl)c3c2=O)CC1` [Compound 1, (S)-2,4-diamino-6-(((5-chloro-3-(4-methylpiperazin-1-yl)-4-oxo-3,4-dihydroquinazolin-2-yl)(cyclopropyl)methyl)amino)pyrimidine-5-carbonitrile] was tested, and the IC50 (PI3Kδ) was 0.021 µM, the IC50 (PI3Kγ) was 1.74 µM and the IC50 (PI3Kβ) was 0.03 µM.

In the case of `CN1CCN(n2c([C@@H](Nc3nc(N)nc(N)c3Cl)C3CC3)nc3cccc(Cl)c3c2=O)CC1` [Compound 2, (S)-5-chloro-2-(cyclopropyl((2,6-diamino-5-chloropyrimidin-4-yl)amino)methyl)-3-(4-methylpiperazin-1-yl)quinazolin-4(3H)-one], the IC50 (PI3Kδ) is reported as 0.26 µM, the IC50 (PI3Kγ) is reported as over 10 µM and the IC50 (PI3Kβ) is reported as 0.95 µM.

Compound `C[C@H](Nc1nc(N)nc(N)c1C#N)c1nc2cccc(Cl)c2c(=O)n1N1CCN(Cc2ccccc2)CC1` [Compound 3, (S)-2,4-diamino-6-((1-(3-(4-benzylpiperazin-1-yl)-5-chloro-4-oxo-3,4-dihydroquinazolin-2-yl)ethyl)amino)pyrimidine-5-carbonitrile] has an IC50 (PI3Kδ) of 0.012 µM, an IC50 (PI3Kγ) of 0.58 µM and an IC50 (PI3Kβ) of 0.008 µM.

`C[C@H](Nc1nc(N)nc(N)c1C#N)c1nc2cccc(Cl)c2c(=O)n1C1C[C@H]2CC[C@@H](C1)N2C` (stereo partly drawn) [Compound 4, 2,4-diamino-6-(((1S)-1-(5-chloro-3-((1R,5S)-8-methyl-8-azabicyclo[3.2.1]octan-3-yl)-4-oxo-3,4-dihydroquinazolin-2-yl)ethyl)amino)pyrimidine-5-carbonitrile] was tested, and the IC50 (PI3Kδ) was 0.082 µM, the IC50 (PI3Kγ) was over 10 µM and the IC50 (PI3Kβ) was 0.29 µM.

For `C[C@H](Nc1ncnc(N)c1C#N)c1nc2cccc(Cl)c2c(=O)n1N1CCN(C)CC1` [Compound 5, (S)-4-amino-6-((1-(5-chloro-3-(4-methylpiperazin-1-yl)-4-oxo-3,4-dihydroquinazolin-2-yl)ethyl)amino)pyrimidine-5-carbonitrile], the IC50 (PI3Kδ) was 0.019 µM, the IC50 (PI3Kγ) was over 10 µM and the IC50 (PI3Kβ) was 0.19 µM.

In the case of `C[C@H](Nc1ncnc(N)c1C#N)c1nc2cccc(Cl)c2c(=O)n1C1CCN(C)CC1` [Compound 6, (S)-4-amino-6-((1-(5-chloro-3-(1-methylpiperidin-4-yl)-4-oxo-3,4-dihydroquinazolin-2-yl)ethyl)amino)pyrimidine-5-carbonitrile], the IC50 (PI3Kδ) is reported as 0.068 µM, the IC50 (PI3Kγ) is reported as over 10 µM and the IC50 (PI3Kβ) is reported as 0.46 µM.

For `C[C@H](Nc1nc(N)nc(N)c1C#N)c1nc2cccc(Cl)c2c(=O)n1N1CCNC2(CC2)C1` [Compound 7, (S)-2,4-diamino-6-((1-(5-chloro-4-oxo-3-(4,7-diazaspiro[2.5]octan-7-yl)-3,4-dihydroquinazolin-2-yl)ethyl)amino)pyrimidine-5-carbonitrile], the IC50 (PI3Kδ) was 0.0008 µM, the IC50 (PI3Kγ) was 0.86 µM and the IC50 (PI3Kβ) was 0.002 µM.

For `C[C@H](Nc1nc(N)nc(N)c1C#N)c1nc2cccc(Cl)c2c(=O)n1[C@H]1CCCNCC1` [Compound 8, 2,4-diamino-6-(((S)-1-(3-((S)-azepan-4-yl)-5-chloro-4-oxo-3,4-dihydroquinazolin-2-yl)ethyl)amino)pyrimidine-5-carbonitrile], the IC50 (PI3Kδ) was 0.002 µM, the IC50 (PI3Kγ) was over 10 µM and the IC50 (PI3Kβ) was 0.062 µM.

In the case of `C[C@H](Nc1nc(N)nc(N)c1C#N)c1nc2cccc(Cl)c2c(=O)n1[C@@H]1CCCNCC1` [Compound 9, 2,4-diamino-6-(((S)-1-(3-((R)-azepan-4-yl)-5-chloro-4-oxo-3,4-dihydroquinazolin-2-yl)ethyl)amino)pyrimidine-5-carbonitrile], the IC50 (PI3Kδ) is reported as 0.002 µM, the IC50 (PI3Kγ) is reported as over 10 µM and the IC50 (PI3Kβ) is reported as 0.009 µM.

`C[C@H](Nc1nc(N)nc(N)c1Cl)c1nc2cccc(Cl)c2c(=O)n1[C@H]1CCCNCC1` [Compound 12, 3-((S)-azepan-4-yl)-5-chloro-2-((S)-1-((2,6-diamino-5-chloropyrimidin-4-yl)amino)ethyl)quinazolin-4(3H)-one] was tested, and the IC50 (PI3Kδ) was 0.056 µM, the IC50 (PI3Kγ) was over 10 µM and the IC50 (PI3Kβ) was 0.66 µM.

For `C[C@H](Nc1nc(N)nc(N)c1Cl)c1nc2cccc(Cl)c2c(=O)n1[C@@H]1CCCNCC1` [Compound 13, 3-((R)-azepan-4-yl)-5-chloro-2-((S)-1-((2,6-diamino-5-chloropyrimidin-4-yl)amino)ethyl)quinazolin-4(3H)-one], the IC50 (PI3Kδ) was 0.033 µM, the IC50 (PI3Kγ) was over 10 µM and the IC50 (PI3Kβ) was 0.18 µM.

With `C[C@H](Nc1ncnc2scnc12)c1nc2cccc(Cl)c2c(=O)n1C1CCNCC1` [Compound 18, (S)-5-chloro-3-(piperidin-4-yl)-2-(1-(thiazolo[5,4-d]pyrimidin-7-ylamino)ethyl)quinazolin-4(3H)-one] the IC50 (PI3Kδ) was 0.009 µM, the IC50 (PI3Kγ) was over 10 µM and the IC50 (PI3Kβ) was 0.063 µM.

With `C[C@H](Nc1nc(N)nc(N)c1Cl)c1nc2c(F)ccc(Cl)c2c(=O)n1N1CCNCC1` [Compound 20, (S)-5-chloro-2-(1-((2,6-diamino-5-chloropyrimidin-4-yl)amino)ethyl)-8-fluoro-3-(piperazin-1-yl)quinazolin-4(3H)-one] the IC50 (PI3Kδ) was 0.02 µM, the IC50 (PI3Kγ) was over 10 µM and the IC50 (PI3Kβ) was 0.04 µM.

With `Cc1nc(N)nc(N[C@@H](C)c2nc3c(F)ccc(Cl)c3c(=O)n2N2CCNCC2)c1C#N` [Compound 21, (S)-2-amino-4-((1-(5-chloro-8-fluoro-4-oxo-3-(piperazin-1-yl)-3,4-dihydroquinazolin-2-yl)ethyl)amino)-6-methylpyrimidine-5-carbonitrile] the IC50 (PI3Kδ) was 0.0007 µM, the IC50 (PI3Kγ) was 0.89 µM and the IC50 (PI3Kβ) was 0.002 µM.

`CC[C@H](Nc1nc(N)nc(N)c1C#N)c1nc2cccc(Cl)c2c(=O)n1C1CCNCC1` [Compound 22, (S)-2,4-diamino-6-((1-(5-chloro-4-oxo-3-(piperidin-4-yl)-3,4-dihydroquinazolin-2-yl)propyl)amino)pyrimidine-5-carbonitrile] was tested, and the IC50 (PI3Kδ) was 0.005 µM, the IC50 (PI3Kγ) was over 10 µM and the IC50 (PI3Kβ) was 0.015 µM.

Compound `CC[C@H](Nc1nc(N)nc(C)c1C#N)c1nc2cccc(Cl)c2c(=O)n1C1CCNCC1` [Compound 23, (S)-2-amino-4-((1-(5-chloro-4-oxo-3-(piperidin-4-yl)-3,4-dihydroquinazolin-2-yl)propyl)amino)-6-methylpyrimidine-5-carbonitrile] has an IC50 (PI3Kδ) of 0.005 µM, an IC50 (PI3Kγ) of over 10 µM and an IC50 (PI3Kβ) of 0.003 µM.

In the case of `Cc1nc(N)nc(N[C@@H](C)c2nc3cccc(Cl)c3c(=O)n2C2CCNCC2)c1C#N` [Compound 24, (S)-2-amino-4-((1-(5-chloro-4-oxo-3-(piperidin-4-yl)-3,4-dihydroquinazolin-2-yl)ethyl)amino)-6-methylpyrimidine-5-carbonitrile], the IC50 (PI3Kδ) is reported as 0.003 µM, the IC50 (PI3Kγ) is reported as over 10 µM and the IC50 (PI3Kβ) is reported as 0.002 µM.

With `C[C@H](Nc1nc(N)nc(N)c1Cl)c1nc2cccc(Cl)c2c(=O)n1C1CCNCC1` [Compound 25, (S)-5-chloro-2-(1-((2,6-diamino-5-chloropyrimidin-4-yl)amino)ethyl)-3-(piperidin-4-yl)quinazolin-4(3H)-one] the IC50 (PI3Kδ) was 0.025 µM, the IC50 (PI3Kγ) was over 10 µM and the IC50 (PI3Kβ) was 0.1 µM.

`C[C@H](Nc1nc(N)nc(N)c1C#N)c1nc2cccc(Cl)c2c(=O)n1C1CCNCC1` [Compound 26, (S)-2,4-diamino-6-((1-(5-chloro-4-oxo-3-(piperidin-4-yl)-3,4-dihydroquinazolin-2-yl)ethyl)amino)pyrimidine-5-carbonitrile] gave an IC50 (PI3Kδ) of 0.002 µM, an IC50 (PI3Kγ) of over 10 µM and an IC50 (PI3Kβ) of 0.002 µM.

`C[C@H](Nc1nc(N)nc(N)c1C#N)c1nc2cccc(Cl)c2c(=O)n1[C@H]1CCCNC1` [Compound 28, 2,4-diamino-6-(((S)-1-(5-chloro-4-oxo-3-((S)-piperidin-3-yl)-3,4-dihydroquinazolin-2-yl)ethyl)amino)pyrimidine-5-carbonitrile] gave an IC50 (PI3Kδ) of 0.022 µM, an IC50 (PI3Kγ) of 6.4 µM and an IC50 (PI3Kβ) of 0.17 µM.

In the case of `C[C@H](Nc1nc(N)nc(N)c1C#N)c1nc2cccc(Cl)c2c(=O)n1C1CNC1` [Compound 29, (S)-2,4-diamino-6-((1-(3-(azetidin-3-yl)-5-chloro-4-oxo-3,4-dihydroquinazolin-2-yl)ethyl)amino)pyrimidine-5-carbonitrile], the IC50 (PI3Kδ) is reported as 0.031 µM, the IC50 (PI3Kγ) is reported as 3.1 µM and the IC50 (PI3Kβ) is reported as 0.091 µM.

For `C[C@H](Nc1nc(N)nc(N)c1C#N)c1nc2cccc(Cl)c2c(=O)n1[C@H]1CCNC1` [Compound 30, 2,4-diamino-6-(((S)-1-(5-chloro-4-oxo-3-((S)-pyrrolidin-3-yl)-3,4-dihydroquinazolin-2-yl)ethyl)amino)pyrimidine-5-carbonitrile], the IC50 (PI3Kδ) was 0.14 µM, the IC50 (PI3Kγ) was over 10 µM and the IC50 (PI3Kβ) was 0.35 µM.

For `C[C@H](Nc1nc(N)nc(N)c1C#N)c1nc2cccc(Cl)c2c(=O)n1[C@@H]1CCNC1` [Compound 31, 2,4-diamino-6-(((S)-1-(5-chloro-4-oxo-3-((R)-pyrrolidin-3-yl)-3,4-dihydroquinazolin-2-yl)ethyl)amino)pyrimidine-5-carbonitrile], the IC50 (PI3Kδ) was 0.019 µM, the IC50 (PI3Kγ) was over 10 µM and the IC50 (PI3Kβ) was 0.078 µM.

Compound `C[C@H](NC(=O)c1nc(Cl)cnc1N)c1nc2cccc(Cl)c2c(=O)n1N1CCNCC1` [Compound 32, (S)-3-amino-6-chloro-N-(1-(5-chloro-4-oxo-3-(piperazin-1-yl)-3,4-dihydroquinazolin-2-yl)ethyl)pyrazine-2-carboxamide] has an IC50 (PI3Kδ) of 0.15 µM, an IC50 (PI3Kγ) of over 10 µM and an IC50 (PI3Kβ) of 0.032 µM.
